Measured values: patent US20120277269A1 (priority 2008, published 2012)
Like-named read-outs stand apart in the source and are kept apart here.

Tests used:
AF patients [1] = conditions: BAFTA; mean follow-up 2.7 years; cited from earlier work
AF patients [2] = conditions: SPORTIF V; Warfarin vs. Ximelagatran; mean follow-up 1.66 years; cited from earlier work
[3] = tested on: patients with atrial fibrillation at risk of stroke
Description: Median follow-up was 2.0 years and the primary outcome was stroke or systemic embolism.
Patients were recruited from 951 clinical centers in 44 countries. In brief, patients were eligible if they had atrial fibrillation documented on electrocardiogram at screening or within 6 months; and at least one of the following: prior stroke or transient ischemic attack; left ventricular ejection fraction less than 40%; New York Heart Association heart failure symptoms of Class 2 or greater within 6 months; age at least 75 years; or age at least 65 years with diabetes mellitus, hypertension or coronary artery disease.
The time in therapeutic range was calculated by the method of Rosendaal (Rosendaal F R, et al., A method to determine the optimal intensity of oral anticoagulant therapy, Thromb Haemost, 1993, 69:236-239), excluding INRs from the first week and after discontinuations. […] Concomitant use of aspirin (less than 100 mg/day) or other antiplatelet agents was allowed.
Liver function testing was performed monthly during the first year of follow-up.
The primary study outcome was stroke or systemic embolism. The primary safety outcome was major hemorrhage. Secondary outcomes were stroke, systemic embolism and death. Other outcomes were myocardial infarction, pulmonary embolism, transient ischemic attacks, and hospitalizations. The primary net benefit-risk outcome was the composite of stroke, systemic embolism, pulmonary embolism, myocardial infarction, death or major hemorrhage. Stroke was defined as sudden onset of focal neurological deficit consistent with the territory of a major cerebral artery and categorized as ischemic, hemorrhagic or unspecified. Hemorrhagic transformation of ischemic stroke was not considered as hemorrhagic stroke. Intracranial hemorrhage included hemorrhagic stroke and sub-dural or sub-arachnoid hemorrhage. Systemic embolism was an acute vascular occlusion of an extremity or organ documented by imaging, surgery or autopsy. Major bleeding was defined as a reduction in hemoglobin level of at least […] or transfusion of at least 2 units of blood or symptomatic bleeding in a critical area or organ. Life-threatening bleeding was a subset of major bleeding that included fatal bleeding, symptomatic intracranial bleeding, bleeding with hemoglobin decrease of more than […] or requiring transfusion of more than 4 units of blood or requiring inotropic agents or necessitating surgery. All other bleeding was considered minor.
All primary and secondary outcome events were blindly and doubly adjudicated. An international team of adjudicators reviewed documents in local languages after blinding; or documents were translated by a independent group and blinded centrally. All transient ischemic attacks were reviewed to ensure that strokes had not been missed. To detect possible unreported events, symptom questionnaires were regularly administered to patients, and adverse events and hospitalization reports were scrutinized for unreported primary or secondary outcomes.
If maximum of the two p-values was greater than 0.025, the minimum of the two p-values must be less than 0.0125, one-sided, to claim statistical significance. All analyses were based on intention-to-treat.

AF patients [4] = conditions: ACTIVE W; mean follow-up 1.3 years; cited from earlier work
AF patients [5] = conditions: SPORTIF III; Warfarin vs. Ximelagatran; mean follow-up 1.45 years; cited from earlier work

What does the source list for CC(=O)CC(c1ccccc1)c1c(O)c2ccccc2oc1=O (racemic) [Warfarin, 3-(α-acetonylbenzyl)-4-hydroxycoumarin]?
Myocardial Infarction (AF patients [1]): 1.1% (warfarin); Myocardial Infarction (AF patients [2]): 1.4% (warfarin); ALT or AST > 3xULN with concurrent bilirubin > 2xULN ([3]; Warfarin): (0.4) %; Adverse Event: Arthralgia ([3]; Warfarin): (5.5) %; Adverse Event: Atrial fibrillation ([3]; Warfarin): (5.4) %; Adverse Event: Back pain ([3]; Warfarin): (5.5) %; Adverse Event: Chest pain ([3]; Warfarin): (5.7) %; Adverse Event: Cough ([3]; Warfarin): (5.8) %; Adverse Event: Diarrhea ([3]; Warfarin): (5.5) %; Adverse Event: Dizziness ([3]; Warfarin): (9.3) %; Adverse Event: Dyspepsia ([3]; Warfarin): (1.4) %; Adverse Event: Dyspnoea ([3]; Warfarin): (9.2) %; Adverse Event: Fatigue ([3]; Warfarin): (5.9) %; Adverse Event: Nasopharyngitis ([3]; Warfarin): (5.5) %; Adverse Event: Peripheral edema ([3]; Warfarin): (7.6) %; Adverse Event: Upper respiratory tract infection ([3]; Warfarin): (5.0) %; Adverse Event: Urinary tract infection ([3]; Warfarin): (5.3) %; Life threatening major bleeding, Rate ([3]; Warfarin): 1.80 /100 Person Years; Liver Function Test Abnormalities: ALT or AST > 3xULN ([3]; Warfarin): (2.1) %; Pulmonary embolism, Rate ([3]; Warfarin): 0.09 /100 Person Years; Reason for discontinuation: Gastrointestinal bleeding ([3]; Warfarin): (0.9) %; Reason for discontinuation: Gastrointestinal disorders (including pain, vomiting and diarrhea) ([3]; Warfarin): (0.8) %; Reason for discontinuation: SAE ([3]; Warfarin): (1.6) %; hepatobiliary disorders (AE) ([3]; Warfarin): (2.2) %; hepatobiliary disorders (SAE) ([3]; Warfarin): (0.4) %; Rate of primary outcome, stroke or systemic embolism ([3]; warfarin, median follow-up 2.0 years): 1.70 % per year; Myocardial Infarction (AF patients [4]): 0.6% (warfarin); Myocardial Infarction (AF patients [5]): 0.6% (warfarin)
